Measurements taken from paper PMC11590026, “Synthesis, enzyme inhibition, and docking studies of new schiff bases of disalicylic acid methylene-based derivatives as dual-target antibacterial agents” (Frontiers in Chemistry, 2024).
≈ marks a conversion by molar mass, not a printed value. Like-named read-outs stand apart in the source and are kept apart here.

Key:
[1] = tested on: B. subtilis; parameters: method as in Al-Wahaibi et al., 2024; settings: ref Al-Wahaibi et al., 2024; cited from earlier work
[2] = tested on: S. aureus; parameters: method as in Al-Wahaibi et al., 2024; settings: ref Al-Wahaibi et al., 2024; cited from earlier work
[3] = target: Topoisomerase IV; settings: earlier work; ref Al-Wahaibi et al., 2024; cited from earlier work
[4] = tested on: P. aeruginosa; parameters: method as in Al-Wahaibi et al., 2024; settings: ref Al-Wahaibi et al., 2024; cited from earlier work
[5] = tested on: E. coli; parameters: method as in Al-Wahaibi et al., 2024; settings: ref Al-Wahaibi et al., 2024; cited from earlier work
[6] = tested on: P. aeruginosa; assay: MIC/MBC assay, twofold serial dilution; assay type: cell-based, Pseudomonas aeruginosa
Experimental: (§1) The results of this in vitro assay test are consistent with the findings of the antimicrobial sensitivity test. […] It has lower antimicrobial activity than ciprofloxacin against all pathogens tested.
(§2) The MBC differs from the MIC. […]
(§3) 4.2.2. Minimum inhibitory concentration assay
(§4) In 96-well microtiter plates and […] of fresh bacterial culture of a single McFarland unit overnight, a double serial dilution of each compound […] in sterile standard saline were prepared to every single source well. Ciprofloxacin antibiotic (5 mg / mL - 1) and normal saline were included as standard reference in each assay. The plates were incubated at 37 0C overnight. As an indicator of bacterial growth, […] of p-iodonitrotetrazolium violet (INT) was added to each well and incubated at 37 0C for 30 […]
(§5) min. MIC values are recorded as the lowest concentration of the extract that completely inhibited bacterial growth that is clear well. The colorless tetrazolidium salt acts as an electron accepter and is reduced to a red colored formazan product by biological activity organisms. Where bacterial growth was inhibited, the solution in the well remained clear after incubation with INT. […]

[7] = tested on: S. aureus; assay: MIC/MBC assay, twofold serial dilution; assay type: cell-based, Staphylococcus aureus
Experimental: as §1, §2, §3, §4, §5

[8] = tested on: S. aureus biofilm; assay: Antibiofilm assay, microtiter plate biofilm quantification
Experimental: Microtiter plate assay for biofilm quantification
The effect of sample on biofilm formation was evaluated in 96-well polystyrene
flatbottom plates. Briefly, 300 𝜇L of inoculated fresh trypticase soy yeast broth (TSY)
Wells containing medium and those without
extracts and only with methanol were used as controls. Plates were incubated at 37∘C
for 48h. After incubation, supernatant was removed and each well was washed
thoroughly with sterile distilled water to remove free-floating cells; thereafter plates
were air-dried for 30min, and the biofilm formed was stained during 15 min at room
temperature with 0.1% aqueous solution of crystal violet. Following incubation, the
excess of stain was removed by washing the plate three times with sterile distilled water.
each well and after 15min of incubation, absorbance was measured using microplate
reader at a wavelength of 570 nm.
Biofilm inhibition ability of sample=(1- (absorb. sample - absorb. Blank))/
(absorb. control - absorb. Blank))*100

[9] = Cell viability assay (MTT); assay type: cell-based; settings: human, MCF-10A cells (normal mammary gland epithelial cell line), 4-day incubation
Experimental: The vitality of the investigated compounds was assessed using the MCF-10A cell line, which is a normal human mammary gland epithelial cell line. Following a 4-day incubation period on MCF-10A cells with a concentration of 50 µM for each compound being studied, the viability of the cells was assessed using the MTT test ([Hisham et al., 2022]; [Mahmoud et al., 2022]).
4.2.3. Cell Viability assay
MTT assay was carried out to study the effect of compounds on mammary epithelial cells (MCF-10A). The medium in which cells were propagated contained Dulbecco's modified Eagle's medium (DMEM)/ Ham's F-12 medium (1:1) supplemented with epidermal growth factor (20 ng/mL), hydrocortisone (500 ng/mL), insulin (10 μg/mL), 2 mM glutamine and 10% fetal calf serum. After every 2-3 days, the cells were passaged using trypsin ethylenediamine tetra acetic acid (EDTA). The cells were seeded at a density of 10^4 cells mL-1 in flat-bottomed culture plates containing 96 wells each. After 24 h, medium was removed from the plates and the compounds in (in 0.1% DMSO) were added (in 200 μL medium to yield a final concentration of 0.1% v/v) to the wells of plates. A single compound was designated with four wells followed by incubation of plates for 96h at 37°C. After incubation, medium was removed completely from the plates followed by addition of MTT (0.4 mg/mL in medium) to each well and subsequent incubation of plates for 3h. MTT (along with the medium) was removed and DMSO (150μL) was added to each well of the culture plates, followed by vortexing and subsequent measurement of absorbance (at 540 nm) using microplate reader. The data are shown as percentage inhibition of proliferation in comparison with controls

[10] = target: E. coli DNA gyrase (Escherichia coli, UniProt P0AES6); assay: E. coli DNA gyrase supercoiling inhibitory assay; assay type: biochemical
Experimental: The fluorescence was measured with a microplate reader (BioTek Synergy H4,
NaCl and 50 mM MgCl2) was added to terminate the enzymatic reaction. After
Initial screening was done at 100 or 10 μM concentration

[11] = target: DHFR E. Coli (Escherichia coli, UniProt P0ABQ4); assay: DHFR inhibitory assay; assay type: biochemical; settings: read-out: IC50 DHFR E. Coli
[12] = tested on: B. subtilis; assay: MIC/MBC assay, twofold serial dilution; assay type: cell-based, Bacillus subtilis
Experimental: as §1, §2, §3, §4, §5

[13] = tested on: A. flavus; assay: Antifungal assay (MIC/MFC), twofold serial dilution; settings: for MIC: A. flavus
[14] = tested on: E. coli; assay: MIC/MBC assay, twofold serial dilution; assay type: cell-based, Escherichia coli
Experimental: as §1, §2, §3, §4, §5

[15] = tested on: C. albicans; assay: Antifungal assay (MIC/MFC), twofold serial dilution
[16] = tested on: P. aeruginosa (ATCC BAA-2111); assay: Antibacterial assay against multi-drug resistant strains (MIC/MBC); assay type: cell-based, Pseudomonas aeruginosa
[17] = tested on: E. coli (ATCC BAA-196); assay: as above; assay type: cell-based, Escherichia coli
[18] = tested on: S. aureus (ATCC 43300) (MRSA); assay: as above; assay type: cell-based, Staphylococcus aureus; settings: for MBC / MIC: S. aureus ATCC 43300 (MRSA)
[19] = tested on: Gram-positive bacteria; assay: MBC assay, Gram-positive bacteria together; assay type: cell-based; settings: Gram-positive bacteria (B. subtilis, S. aureus)
Description: The MBC differs from the MIC.

[20] = target: S. aureus DNA gyrase; parameters: method as in Alzahrani et al., 2022; settings: ref Alzahrani et al., 2022; read-out: S. aureus DNA gyrase inhibitor IC50; cited from earlier work
[21] = Staphylococcus aureus, read-out: MBC
[22] = Staphylococcus aureus, read-out: MIC

DHFR E. Coli, sequence (P0ABQ4 whole entry): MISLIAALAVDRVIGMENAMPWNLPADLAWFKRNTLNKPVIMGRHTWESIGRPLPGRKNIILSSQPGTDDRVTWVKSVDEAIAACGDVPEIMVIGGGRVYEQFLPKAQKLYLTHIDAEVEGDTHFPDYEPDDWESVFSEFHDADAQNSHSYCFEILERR

Q: For COc1ccccc1/C=N/NC(=O)c1cc(Cc2ccc(O)c(C(=O)N/N=C/c3ccccc3OC)c2)ccc1O [Compound 5h], which MIC [1] is on record?
A: 0.050 mg/L (≈ 0.0905 µM)

Q: What about the “Times less potent/effective than ciprofloxacin (MIC)” value [1] of the same compound?
A: five times less potent than ciprofloxacin

Q: And the MIC [2]?
A: 0.030 mg/L (≈ 0.0543 µM)

Q: And the IC50 [3]?
A: 3.5 µM

Q: What about the MIC [4] of the same compound?
A: 0.060 mg/L (≈ 0.109 µM)

Q: And the MIC [5]?
A: 0.065 mg/L (≈ 0.118 µM)

Q: For O=C1Nc2ccc(Cl)cc2/C1=N/NC(=O)c1cc(Cc2ccc(O)c(C(=O)N/N=C3\C(=O)Nc4ccc(Cl)cc43)c2)ccc1O [Compound 6h], which MBC [6] is on record?
A: 0.074 ± 0.005 µM (≈ 0.0476 µg/mL)

Q: And the MIC [6]?
A: 0.055 ± 0.004 µM (≈ 0.0354 µg/mL)

Q: And the MBC ([6]; Pseudomonas aeruginosa, read-out: MBC)?
A: 0.074 µM (≈ 0.0476 µg/mL)

Q: And the MIC ([6]; Pseudomonas aeruginosa, read-out: MIC)?
A: 0.055 µM (≈ 0.0354 µg/mL)

Q: And the MBC [7]?
A: 0.028 ± 0.001 µM (≈ 0.018 µg/mL)

Q: What about the MIC [7] of the same compound?
A: 0.019 ± 0.001 µM (≈ 0.0122 µg/mL)

Q: What about the “Times more effective than ciprofloxacin (MIC)” value [7] of the same compound?
A: 1.5 times

Q: What about the MBC [7, 21] of the same compound?
A: 0.028 µM (≈ 0.018 µg/mL)

Q: And the MIC [7, 22]?
A: 0.019 µM (≈ 0.0122 µg/mL)

Q: And the Biofilm inhibition % ([8]; 1/2 MIC of 6h (S. aureus ATCC 43300))?
A: 87.66%

Q: What about the Biofilm inhibition % ([8]; 1/2 MIC of 6h (S. aureus ATCC 43300), listed as 6 h) of the same compound?
A: 88%

Q: And the Biofilm inhibition % ([8]; 1/4 of MIC of 6h (S. aureus ATCC 43300))?
A: 64.10%

Q: And the Biofilm inhibition % ([8]; 1/4 of MIC of 6h (S. aureus ATCC 43300), listed as 6 h)?
A: 64%

Q: And the Biofilm inhibition % ([8]; MIC of 6h (S. aureus ATCC 43300))?
A: 96.95%

Q: And the Biofilm inhibition % ([8]; MIC of 6h (S. aureus ATCC 43300), listed as 6 h)?
A: 97%

Q: What about the viability at 96 h, 50 µM [9] of the same compound?
A: 93%

Q: What about the “Potency relative to novobiocin against DNA gyrase” value [10] of the same compound?
A: twice as potent as novobiocin

Q: What about the IC50 ([10]; read-out: IC50 E. Coli DNA gyrase) of the same compound?
A: 0.079 ± 0.005 µM

Q: What about the IC50 [11] of the same compound?
A: 3.8 ± 0.1 µM

Q: What about the MBC [12] of the same compound?
A: 0.038 ± 0.002 µM (≈ 0.0245 µg/mL)

Q: What about the MIC [12] of the same compound?
A: 0.024 ± 0.002 µM (≈ 0.0154 µg/mL)

Q: And the “Times less effective than ciprofloxacin (MIC)” value [12]?
A: 2.5 times

Q: What about the MBC ([12]; Bacillus subtilis, read-out: MBC) of the same compound?
A: 0.038 µM (≈ 0.0245 µg/mL)

Q: What about the MIC ([12]; Bacillus subtilis, read-out: MIC) of the same compound?
A: 0.024 µM (≈ 0.0154 µg/mL)

Q: And the MIC [13]?
A: 14.50 µM (≈ 9.33 µg/mL)

Q: And the MIC ([13]; listed as 6 h)?
A: 14.50 ± 1 µM (≈ 9.33 µg/mL)

Q: And the MFC ([13]; Aspergillus flavus)?
A: 28.5 ± 1 µM (≈ 18.3 µg/mL)

Q: And the MIC ([13]; Aspergillus flavus)?
A: 14.5 to 19.5 µM (≈ 9.33 to 12.5 µg/mL)

Q: What about the MIC [14] of the same compound?
A: 0.054 ± 0.003 µM (≈ 0.0347 µg/mL)

Q: And the MBC ([14]; Escherichia coli, read-out: MBC)?
A: 0.074 ± 0.006 µM (≈ 0.0476 µg/mL)

Q: And the MIC ([14]; Escherichia coli, read-out: MIC)?
A: 0.054 µM (≈ 0.0347 µg/mL)

Q: What about the MIC ([15]; C. albicans) of the same compound?
A: 18.20 ± 1 µM (≈ 11.7 µg/mL)

Q: What about the MFC ([15]; Candida albicans) of the same compound?
A: 36.5 ± 2 µM (≈ 23.5 µg/mL)

Q: And the MIC ([15]; Candida albicans)?
A: 18.2 µM (≈ 11.7 µg/mL)

Q: And the MIC [16]?
A: 3.40 ± 0.20 µM (≈ 2.19 µg/mL)

Q: What about the MBC ([16]; Pseudomonas aeruginosa, ATCCBAA2111) of the same compound?
A: 5.8 ± 0.3 µM (≈ 3.73 µg/mL)

Q: What about the MIC ([16]; Pseudomonas aeruginosa, ATCCBAA2111, read-out: MIC) of the same compound?
A: 3.4 µM (≈ 2.19 µg/mL)

Q: And the MIC [17]?
A: 1.90 ± 0.10 µM (≈ 1.22 µg/mL)

Q: And the MBC ([17]; Escherichia coli, ATCCBAA196)?
A: 3.7 ± 0.2 µM (≈ 2.38 µg/mL)

Q: And the MIC ([17]; Escherichia coli, ATCCBAA196, read-out: MIC)?
A: 1.9 µM (≈ 1.22 µg/mL)

Q: And the “Times more potent than norfloxacin (MBC)” value ([18]; MRSA strain S. aureus ATCC 43300)?
A: around 1.2 times

Q: And the MBC [18]?
A: 3.20 ± 0.15 µM (≈ 2.06 µg/mL)

Q: What about the MIC [18] of the same compound?
A: 1.70 ± 0.10 µM (≈ 1.09 µg/mL)

Q: And the MBC [18, 21]?
A: 3.9 µM (≈ 2.51 µg/mL)

Q: What about the MIC [18, 22] of the same compound?
A: 1.7 µM (≈ 1.09 µg/mL)

Q: What about the MBC [19] of the same compound?
A: 0.028 to 0.058 µM (≈ 0.018 to 0.0373 µg/mL)

Q: For O=C1Nc2ccc(S(=O)(=O)N3CCOCC3)cc2/C1=N/NC(=O)C12CC3CC(CC(C3)C1)C2 [II], which IC50 [20] is on record?
A: 19.3 µM
